Measured values as given in patent US20230085307A1, “PYRIDAZINONE COMPOUND AND HERBICIDE” (NISSAN CHEMICAL CORPORATION, priority 2019, published 2023).

Key:
[1] = system: Italian ryegrass; assay: Test Example 4: herbicidal effect by soil treatment (Table 19, symbol K); assay type: in vivo, Italian ryegrass (Lolium multiflorum); conditions: amount of applied herbicide 320 g/ha
Procedure, shortened: (§1)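 Seeds were sown in sterilized diluvial soil and covered with about 1.5 cm of soil. An emulsion formulation diluted with water to a predetermined herbicide amount was sprayed evenly onto the soil surface. Plants grew in a greenhouse at 25° C. to 30° C., and the effect was scored three weeks after application using criteria from an earlier test.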

[2] = system: southern crabgrass; assay: Test Example 5: herbicidal effect by foliage application, plastic box (Table 20, symbol F); assay type: in vivo, southern crabgrass (Digitaria ciliaris); conditions: foliage application, evaluated three weeks after application
Procedure, shortened: (§2)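 Plants sown in sterilized diluvial soil and grown 14 days in a greenhouse at 25° C to 30° C, then sprayed on the foliage with the compound's emulsion diluted in water to a predetermined herbicide amount. Injury to weeds and crops scored three weeks after application on a visual rating scale.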

[3] = system: green foxtail; assay: Test Example 5: herbicidal effect by foliage application, plastic box (Table 20, symbol G); assay type: in vivo, green foxtail (Setaria viridis); conditions: foliage application, evaluated three weeks after application
Procedure, shortened: as §2

[4] = system: false cleavers; assay: Test Example 4: herbicidal effect by soil treatment (Table 19, symbol Q); assay type: in vivo, false cleavers (Galium spurium); conditions: amount of applied herbicide 320 g/ha
Procedure, shortened: as §1

[5] = system: redroot pigweed; assay: Test Example 5: herbicidal effect by foliage application, plastic box (Table 20, symbol N); assay type: in vivo, redroot pigweed (Amaranthus retroflexus); conditions: foliage application, evaluated three weeks after application
Procedure, shortened: as §2

[6] = system: blackgrass; assay: Test Example 4: herbicidal effect by soil treatment (Table 19, symbol J); assay type: in vivo, blackgrass (Alopecurus myosuroides); conditions: amount of applied herbicide 320 g/ha
Procedure, shortened: as §1

[7] = system: persian speedwell; assay: Test Example 5: herbicidal effect by foliage application, plastic box (Table 20, symbol R); assay type: in vivo, Persian speedwell (Veronica persica); conditions: foliage application, evaluated three weeks after application
Procedure, shortened: as §2

[8] = system: barnyard grass; assay: Test Example 5: herbicidal effect by foliage application, plastic box (Table 20, symbol H); assay type: in vivo, barnyard grass (Echinochloa crus-galli); conditions: foliage application, evaluated three weeks after application
Procedure, shortened: as §2

[9] = system: windgrass; assay: Test Example 4: herbicidal effect by soil treatment (Table 19, symbol L); assay type: in vivo, windgrass (Apera spica-venti); conditions: amount of applied herbicide 320 g/ha
Procedure, shortened: as §1

[10] = system: lambsquarters; assay: Test Example 4: herbicidal effect by soil treatment (Table 19, symbol O); assay type: in vivo, lambsquarters (Chenopodium album); conditions: amount of applied herbicide 320 g/ha
Procedure, shortened: as §1

[11] = system: wild oat; assay: Test Example 4: herbicidal effect by soil treatment (Table 19, symbol I); assay type: in vivo, wild oat (Avena fatua); conditions: amount of applied herbicide 320 g/ha
Procedure, shortened: as §1

[12] = system: chickweed; assay: Test Example 5: herbicidal effect by foliage application, plastic box (Table 20, symbol P); assay type: in vivo, common chickweed (Stellaria media); conditions: foliage application, evaluated three weeks after application
Procedure, shortened: as §2

[13] = system: southern crabgrass; assay: Test Example 4: herbicidal effect by soil treatment (Table 19, symbol F); assay type: in vivo, southern crabgrass (Digitaria ciliaris); conditions: amount of applied herbicide 320 g/ha
Procedure, shortened: as §1

[14] = system: windgrass; assay: Test Example 5: herbicidal effect by foliage application, plastic box (Table 20, symbol L); assay type: in vivo, windgrass (Apera spica-venti); conditions: foliage application, evaluated three weeks after application
Procedure, shortened: as §2

[15] = system: persian speedwell; assay: Test Example 4: herbicidal effect by soil treatment (Table 19, symbol R); assay type: in vivo, Persian speedwell (Veronica persica); conditions: amount of applied herbicide 320 g/ha
Procedure, shortened: as §1

[16] = system: barnyard grass; assay: Test Example 3: herbicidal effect by foliage application, Wagner pot (Table 18, symbol H); assay type: in vivo, barnyard grass (Echinochloa crus-galli); conditions: amount of applied herbicide 320 g/ha
Procedure, shortened: (§3)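 Plants were sown in alluvial soil held under 0.1–0.5 cm standing water and grown 14 days in a greenhouse at 25–30 °C. An emulsifiable formulation, water-diluted to the set dose, was then sprayed onto the foliage, and effects were scored three weeks later using previously defined criteria.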

[17] = system: velvetleaf; assay: Test Example 4: herbicidal effect by soil treatment (Table 19, symbol M); assay type: in vivo, velvetleaf (Abutilon theophrasti); conditions: amount of applied herbicide 320 g/ha
Procedure, shortened: as §1

[18] = system: rice flat sedge; assay: Test Example 3: herbicidal effect by foliage application, Wagner pot (Table 18, symbol E); assay type: in vivo, rice flat sedge (Cyperus iria); conditions: amount of applied herbicide 320 g/ha
Procedure, shortened: as §3

[19] = system: redroot pigweed; assay: Test Example 4: herbicidal effect by soil treatment (Table 19, symbol N); assay type: in vivo, redroot pigweed (Amaranthus retroflexus); conditions: amount of applied herbicide 320 g/ha
Procedure, shortened: as §1

[20] = system: Italian ryegrass; assay: Test Example 5: herbicidal effect by foliage application, plastic box (Table 20, symbol K); assay type: in vivo, Italian ryegrass (Lolium multiflorum); conditions: foliage application, evaluated three weeks after application
Procedure, shortened: as §2

[21] = system: velvetleaf; assay: Test Example 5: herbicidal effect by foliage application, plastic box (Table 20, symbol M); assay type: in vivo, velvetleaf (Abutilon theophrasti); conditions: foliage application, evaluated three weeks after application
Procedure, shortened: as §2

[22] = system: green foxtail; assay: Test Example 4: herbicidal effect by soil treatment (Table 19, symbol G); assay type: in vivo, green foxtail (Setaria viridis); conditions: amount of applied herbicide 320 g/ha
Procedure, shortened: as §1

[23] = system: lambsquarters; assay: Test Example 5: herbicidal effect by foliage application, plastic box (Table 20, symbol O); assay type: in vivo, lambsquarters (Chenopodium album); conditions: foliage application, evaluated three weeks after application
Procedure, shortened: as §2

[24] = system: Chinese sprangletop; assay: Test Example 3: herbicidal effect by foliage application, Wagner pot (Table 18, symbol D); assay type: in vivo, chinese sprangletop (Leptochloa chinensis); conditions: amount of applied herbicide 320 g/ha
Procedure, shortened: as §3

[25] = system: chickweed; assay: Test Example 4: herbicidal effect by soil treatment (Table 19, symbol P); assay type: in vivo, common chickweed (Stellaria media); conditions: amount of applied herbicide 320 g/ha
Procedure, shortened: as §1

[26] = system: wild oat; assay: Test Example 5: herbicidal effect by foliage application, plastic box (Table 20, symbol I); assay type: in vivo, wild oat (Avena fatua); conditions: foliage application, evaluated three weeks after application
Procedure, shortened: as §2

[27] = system: blackgrass; assay: Test Example 5: herbicidal effect by foliage application, plastic box (Table 20, symbol J); assay type: in vivo, blackgrass (Alopecurus myosuroides); conditions: foliage application, evaluated three weeks after application
Procedure, shortened: as §2

[28] = system: barnyard grass; assay: Test Example 4: herbicidal effect by soil treatment (Table 19, symbol H); assay type: in vivo, barnyard grass (Echinochloa crus-galli); conditions: amount of applied herbicide 320 g/ha
Procedure, shortened: as §1

CCSc1cccc(-c2sc3ccc(F)cc3c2-c2c(O)c(C)nn(C)c2=O)c1 [2-242]
herbicidal effect on K: Italian ryegrass [1]: 0 (Herbicidal rate of 5% or less (almost no effect)) | herbicidal effect on F: southern crabgrass (criteria 0-5) ([2]; 320 g/ha): 3 (Herbicidal rate of 40% or more and less than 70%) | herbicidal effect on G: green foxtail (criteria 0-5) ([3]; 320 g/ha): 3 (Herbicidal rate of 40% or more and less than 70%) | herbicidal effect on Q: false cleavers [4]: 0 (Herbicidal rate of 5% or less (almost no effect)) | herbicidal effect on N: redroot pigweed (criteria 0-5) ([5]; 320 g/ha): 4 (Herbicidal rate of 70% or more and less than 90%) | herbicidal effect on J: blackgrass [6]: 0 (Herbicidal rate of 5% or less (almost no effect)) | herbicidal effect on R: persian speedwell (criteria 0-5) ([7]; 320 g/ha): 5 (Herbicidal rate of 90% or more (almost completely withered)) | herbicidal effect on H: barnyard grass (criteria 0-5) ([8]; 320 g/ha): 1 (Herbicidal rate of 5% or more and less than 20%) | herbicidal effect on L: windgrass [9]: 0 (Herbicidal rate of 5% or less (almost no effect)) | herbicidal effect on O: lambsquarters [10]: 1 (Herbicidal rate of 5% or more and less than 20%) | herbicidal effect on I: wild oat [11]: 0 (Herbicidal rate of 5% or less (almost no effect)) | herbicidal effect on P: chickweed (criteria 0-5) ([12]; 320 g/ha): 5 (Herbicidal rate of 90% or more (almost completely withered)) | herbicidal effect on F: southern crabgrass [13]: 0 (Herbicidal rate of 5% or less (almost no effect)) | herbicidal effect on L: windgrass (criteria 0-5) ([14]; 320 g/ha): 4 (Herbicidal rate of 70% or more and less than 90%) | herbicidal effect on R: persian speedwell [15]: 4 (Herbicidal rate of 70% or more and less than 90%) | herbicidal effect on H: barnyard grass [16]: 3 (Herbicidal rate of 40% or more and less than 70%) | herbicidal effect on M: velvetleaf [17]: 0 (Herbicidal rate of 5% or less (almost no effect)) | herbicidal effect on E: rice flat sedge [18]: 2 (Herbicidal rate of 20% or more and less than 40%) | herbicidal effect on N: redroot pigweed [19]: 2 (Herbicidal rate of 20% or more and less than 40%) | herbicidal effect on K: Italian ryegrass (criteria 0-5) ([20]; 320 g/ha): 1 (Herbicidal rate of 5% or more and less than 20%) | herbicidal effect on M: velvetleaf (criteria 0-5) ([21]; 320 g/ha): 3 (Herbicidal rate of 40% or more and less than 70%) | herbicidal effect on G: green foxtail [22]: 0 (Herbicidal rate of 5% or less (almost no effect)) | herbicidal effect on O: lambsquarters (criteria 0-5) ([23]; 320 g/ha): 3 (Herbicidal rate of 40% or more and less than 70%) | herbicidal effect on D: Chinese sprangletop [24]: 0 (Herbicidal rate of 5% or less (almost no effect)) | herbicidal effect on P: chickweed [25]: 1 (Herbicidal rate of 5% or more and less than 20%) | herbicidal effect on I: wild oat (criteria 0-5) ([26]; 320 g/ha): 4 (Herbicidal rate of 70% or more and less than 90%) | herbicidal effect on J: blackgrass (criteria 0-5) ([27]; 320 g/ha): 0 (Herbicidal rate of 5% or less (almost no effect)) | herbicidal effect on H: barnyard grass [28]: 0 (Herbicidal rate of 5% or less (almost no effect))

CCn1nc(C)c(O)c(-c2c(-c3ccccc3OC)sc3ccc(F)cc23)c1=O [2-404]
herbicidal effect, K: Italian ryegrass [1]: 0 (Herbicidal rate of 5% or less (almost no effect)) | F: southern crabgrass, herbicidal effect (criteria 0-5) ([2]; AAH 320 g/ha): 2 (Herbicidal rate of 20% or more and less than 40%) | G: green foxtail, herbicidal effect (criteria 0-5) ([3]; AAH 320 g/ha): 1 (Herbicidal rate of 5% or more and less than 20%) | herbicidal effect, Q: false cleavers [4]: 0 (Herbicidal rate of 5% or less (almost no effect)) | N: redroot pigweed, herbicidal effect (criteria 0-5) ([5]; AAH 320 g/ha): 5 (Herbicidal rate of 90% or more (almost completely withered)) | herbicidal effect, J: blackgrass [6]: 0 (Herbicidal rate of 5% or less (almost no effect)) | R: persian speedwell, herbicidal effect (criteria 0-5) ([7]; AAH 320 g/ha): 5 (Herbicidal rate of 90% or more (almost completely withered)) | H: barnyard grass, herbicidal effect (criteria 0-5) ([8]; AAH 320 g/ha): 3 (Herbicidal rate of 40% or more and less than 70%) | herbicidal effect, L: windgrass [9]: 0 (Herbicidal rate of 5% or less (almost no effect)) | herbicidal effect, O: lambsquarters [10]: 3 (Herbicidal rate of 40% or more and less than 70%) | herbicidal effect, I: wild oat [11]: 0 (Herbicidal rate of 5% or less (almost no effect)) | P: chickweed, herbicidal effect (criteria 0-5) ([12]; AAH 320 g/ha): 5 (Herbicidal rate of 90% or more (almost completely withered)) | herbicidal effect, F: southern crabgrass [13]: 0 (Herbicidal rate of 5% or less (almost no effect)) | L: windgrass, herbicidal effect (criteria 0-5) ([14]; AAH 320 g/ha): 0 (Herbicidal rate of 5% or less (almost no effect)) | herbicidal effect, R: persian speedwell [15]: 0 (Herbicidal rate of 5% or less (almost no effect)) | herbicidal effect on H: barnyard grass [16]: 3 (Herbicidal rate of 40% or more and less than 70%) | herbicidal effect, M: velvetleaf [17]: 0 (Herbicidal rate of 5% or less (almost no effect)) | herbicidal effect on E: rice flat sedge [18]: 3 (Herbicidal rate of 40% or more and less than 70%) | herbicidal effect, N: redroot pigweed [19]: 3 (Herbicidal rate of 40% or more and less than 70%) | K: Italian ryegrass, herbicidal effect (criteria 0-5) ([20]; AAH 320 g/ha): 0 (Herbicidal rate of 5% or less (almost no effect)) | M: velvetleaf, herbicidal effect (criteria 0-5) ([21]; AAH 320 g/ha): 3 (Herbicidal rate of 40% or more and less than 70%) | herbicidal effect, G: green foxtail [22]: 0 (Herbicidal rate of 5% or less (almost no effect)) | O: lambsquarters, herbicidal effect (criteria 0-5) ([23]; AAH 320 g/ha): 3 (Herbicidal rate of 40% or more and less than 70%) | herbicidal effect on D: Chinese sprangletop [24]: 0 (Herbicidal rate of 5% or less (almost no effect)) | herbicidal effect, P: chickweed [25]: 0 (Herbicidal rate of 5% or less (almost no effect)) | I: wild oat, herbicidal effect (criteria 0-5) ([26]; AAH 320 g/ha): 0 (Herbicidal rate of 5% or less (almost no effect)) | J: blackgrass, herbicidal effect (criteria 0-5) ([27]; AAH 320 g/ha): 0 (Herbicidal rate of 5% or less (almost no effect)) | herbicidal effect, H: barnyard grass [28]: 0 (Herbicidal rate of 5% or less (almost no effect))
